{
  "source": "patent US20050272636A1",
  "about": "“Treatment and diagnosis of a reproductive disorder by measuring or inhibiting interferon-gamma” (Adelaide Research & Innovation Pty Ltd., priority 2002, published 2005)",
  "key": {"[1]": {"test_system": "murine uterine epithelial cells", "assay": "Effect of rIFNγ and rTGFβ on GM-CSF production in cultured uterine epithelial cells (Example 2)", "assay_type": "cell-based, mouse", "conditions": "rTGFβ 5 ng/ml; DMEM +penicillin; two experiments", "experimental": "Uterine Epithelial Cell Cultures. Uterine epithelial cells prepared as previously described (Robertson et al., Biol Reprod 46:1069-1079 (1992)) were pooled from 4-6 estrous C57B1/6 or C57B1/6×Balb/c F1 mice and plated in 1 ml culture wells (Nunc, Roskilde, Germany) at 1-2×10^5 cells per ml in 500 μl of Dulbecco's modified Eagles medium containing 10% FCS, […] streptomycin sulphate and […] benzyl penicillin (DMEM +penicillin). After 4 h incubation at 37° C. in 5% CO2 to allow cell adherence, a further 500 μl of DMEM +penicillin, or DMEM +penicillin plus recombinant mouse IFNγ (rIFNγ) and/or recombinant human TGFβ1 (rTGFβ), were added. In some experiments, penicillin-free DMEM (DMEM −penicillin) was used throughout. Culture supernatants were collected and replaced with fresh medium at 16 hours, then collected again 24 hours later, at which time GM-CSF content was determined and adherent cells were quantified as previously described (Robertson et al., Biol Reprod 46:1069-1079 (1992)). All treatments were performed in duplicate or triplicate. rTGFβ and rIFNγ were obtained from R&D Systems, UK.\nGM-CSF bioassay: GM-CSF was assayed using the GM-CSF dependant cell line FD 5/12, essentially as previously described (Robertson et al., Biol Reprod 46:1069-1079 (1992)). Cell proliferation was determined by pulsing with 1 μCi of [^3H]-thymidine per well for the last 6 h of the assay. The minimal detectable amount of GM-CSF was 20 pg/ml. The identity of the bioactivity in uterine epithelial cell cultures was confirmed using a goat polyclonal antibody to murine GM-CSF (DNAX, Palo Alto, Calif.) as previously described (Robertson et al., Biol Reprod 46:1069-1079 (1992)). GM-CSF production is expressed as ng GM-CSF/10^5 cells/24 h. Recombinant mouse GM-CSF was obtained from R&D Systems."}, "[2]": {"test_system": "IFNγ", "assay": "Inhibitors and antagonists counteracting the GM-CSF-inhibiting actions of IFNγ in uterine epithelial cells (Example 3)", "assay_type": "cell-based, mouse", "conditions": "added in combination with IFNγ; dose-responsive, 5 ng/ml greater effect than 0.5 ng/ml", "experimental": "Several inhibitors and antagonists of IFNγ were tested for their ability to counteract the GM-CSF-inhibiting actions of IFNγ in epithelial cells.\nUterine Epithelial Cell Cultures. Uterine epithelial cells prepared by pancreatin-trypsin digest as previously described (Robertson et al., (1992) Biol. Reprod. 46:1069-1079) were pooled from 4-6 estrous adult C57B1/6×CBA F1 female mice and plated in 1 ml culture wells (Nunc, Roskilde, Germany) at 1-2×10^5 cells per ml in 500 μl of RPMI containing 10% FCS and streptomycin (RPMI-FCS). Penicillin was omitted from culture media except where specified. After 4 h incubation at 37° C. in 5% CO2 to allow cell adherence, a further 500 μl of cytokines or antibodies in RPMI-FCS, or RPMI-FCS alone, were added. Cytokine treatments included recombinant mouse interferon-γ (rmIFNγ; R&D Systems), recombinant human transforming growth factor β1 (rhTGFβ1, R&D Systems), rhTGFβ2 (R&D Systems), rhTGFβ3 (OSI Pharmaceuticals). Antibody treatments included goat anti-mouse IFNγ receptor 1 (αIFNγR; R&D Systems AF1026) and hamster anti-mouse IFNγ (αIFNγ; R&D Systems MAB4851). Culture supernatants were collected and replaced with fresh complete RPMI-FCS alone at 16 hours, then collected again 24 hours later, at which time adherent cells were quantified as previously described (Robertson et al., (1992) Biol. Reprod. 46:1069-1079). The GM-CSF content of 24 h supernatants was determined by GM-CSF bioassay or immunoassay. All treatments were performed in duplicate or triplicate.\nGM-CSF bioassay and immunoassay: Bioactive GM-CSF was assayed using the GM-CSF dependant cell line FD 5/12, essentially as previously described (Robertson et al., (1992) Biol. Reprod. 46:1069-1079). Cell proliferation was determined by the addition of 1 μCi of [^3H]-thymidine per well for the last 6 h of the assay. The minimal detectable amount of GM-CSF was […] The identity of the bioactivity in uterine epithelial cell cultures was confirmed using a goat polyclonal antibody to murine GM-CSF kindly provided by J. Schreurs (DNAX, Palo Alto, Calif.) as previously described (Robertson et al., (1992) Biol. Reprod. 46:1069-1079). GM-CSF immunoactivity was in some experiments measured by commercial mouse GM-CSF specific ELISA (R & D Systems) according to the manufacturer's instructions."}},
  "data": [
    {"substance": "rhTGFβ1: recombinant human transforming growth factor β1 (R&D Systems)", "values": [
      {"measurement": "increase in GM-CSF production", "setting": "[1]", "result": "approximately 6 fold"},
      {"measurement": "effect of TGFβ isoform on the inhibitory effect of IFNγ on GM-CSF synthesis", "setting": "[2]", "result": "counteracted the inhibitory effect"}
    ]}
  ]
}
